Source: patent publication US20190275012A9, “SUBSTITUTED THIAZOLO-PYRIDINE COMPOUNDS AS MALT1 INHIBITORS” (Lupin Limited, priority 2016, published 2019)

Columns and labels:
full length MALT1 enzyme = molecular target: T1, full length MALT1 enzyme (Homo sapiens, UniProt Q9UDY8); experiment: MALT1 biochemical assay (fluorescence based, Ac-Leu-Arg-Ser-Arg-AMC cleavage); settings: full length MALT1 protein, 2 h pre-incubation at RT, tetrapeptide substrate Ac-Leu-Arg-Ser-Arg-AMC, read-out: Malt 1 inhibition IC50
T1 construct: a fluorescence based assay with full length MALT1 enzyme
T1 sequence (Q9UDY8 1-824): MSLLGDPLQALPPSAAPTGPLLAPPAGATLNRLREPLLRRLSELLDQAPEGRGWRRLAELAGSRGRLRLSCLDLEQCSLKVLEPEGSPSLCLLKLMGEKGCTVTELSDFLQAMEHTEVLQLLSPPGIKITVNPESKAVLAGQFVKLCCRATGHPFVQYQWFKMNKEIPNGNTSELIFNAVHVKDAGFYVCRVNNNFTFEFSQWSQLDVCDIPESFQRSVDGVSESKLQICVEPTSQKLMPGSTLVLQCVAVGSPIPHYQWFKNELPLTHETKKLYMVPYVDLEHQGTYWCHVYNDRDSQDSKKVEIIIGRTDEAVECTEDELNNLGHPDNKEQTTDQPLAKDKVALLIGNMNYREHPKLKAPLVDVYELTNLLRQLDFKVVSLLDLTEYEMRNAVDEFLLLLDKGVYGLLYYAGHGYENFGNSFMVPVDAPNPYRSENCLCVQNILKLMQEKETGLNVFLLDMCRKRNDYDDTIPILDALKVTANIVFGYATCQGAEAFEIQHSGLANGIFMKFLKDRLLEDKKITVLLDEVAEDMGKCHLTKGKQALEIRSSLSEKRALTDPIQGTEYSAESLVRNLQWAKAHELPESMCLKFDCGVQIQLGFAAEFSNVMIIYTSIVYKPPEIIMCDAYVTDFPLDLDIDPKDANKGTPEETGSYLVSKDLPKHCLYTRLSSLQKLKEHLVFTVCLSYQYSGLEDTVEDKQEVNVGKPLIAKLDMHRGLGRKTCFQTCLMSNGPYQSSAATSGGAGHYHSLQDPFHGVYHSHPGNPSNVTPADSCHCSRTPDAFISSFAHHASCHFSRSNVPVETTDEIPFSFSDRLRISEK
Experimental: The biochemical potency of the MALT1 inhibitors was tested by using a fluorescence based assay with full length MALT1 enzyme. The assay principle makes use of the preferential cleavage by MALT1 after the Arginine residue. Thus, the substrate used is a tetrapeptide (Ac-Leu-Arg-Ser-Arg-AMC; Catalogue # SMAMC013, SM Biochemicals) which is cleaved by active MALT1 releasing the AMC which is fluorescent. Upon addition of the MALT1 protease inhibitors, the proteolytic activity (and accordingly AMC fluorescence) is reduced in a dose dependent manner. The kinetic characterization of the enzymatic reaction was measured by determining the Michaelis constant, Km, of the reaction (approximately 130=A/I). The assay buffer consisted of 50 mM MES, 150 mM NaCl, 0.1% w/v CHAPS, 1 M Ammonium citrate and 10 mM DTT (pH=7). The assay was established for the 384-well plate format using black microtiter square well plates (Optiplate 384-F, Perkin Elmer). The test compounds were dissolved in 100% DMSO at a stock concentration of 10 mM. Serial dilutions were made first in 100% DMSO. The final concentration of DMSO was 0.5% by wt.
For determining the extent of inhibition of MALT1 protease activity by MALT1 inhibitors, 10⇒| of the test compound solutions were pre-incubated with 10⇒| of MALT1 full length protein (100-300 ng protein/well) for 2 h at RT. This was followed by 10⇒| of substrate addition at a final concentration of 100⇒M for an additional 4-12 h. The increase in assay signal was linear over this period of time and proportional with increase in the enzyme content. The final concentrations of the test compounds typically ranged from 10000 nM to 0.03 nM in an alternate 3.16 and 3 serial dilutions. The positive control for the reaction contained enzyme and DMSO (without any test compound) and was considered to have 100% enzyme activity (0% inhibition) and the negative control containing only buffer and DMSO (without any enzyme) was considered to have no enzymatic activity (100% inhibition). The fluorescence was recorded in a Spectra Max plate reader, Molecular Devices, with a fluorescence excitation at 360 nm and emission recording at 460 nm. The fluorescence units were transformed to percentage inhibitions by using the positive and negative controls as references as per the following formula.
[formula] Positive control=Reaction containing enzyme+substrate+DMSO
Negative control=Reaction containing substrate+DMSO but no enzyme
The IC50 values of individual compounds were calculated with Non Linear Regression Analysis using Graph Pad Prism (Graph Pad software, Inc, USA).

[1] = system: NF-kB transcriptional activity in HEK-293-NF-kB-Luc cell line overexpressing MALT1; experiment: NF-kB reporter assay (luciferase, MALT1 stably overexpressed); assay type: cell-based; settings: Homo sapiens, 24 h, HEK-293-NF-kB-Luc cells stably overexpressing MALT1, 24 h treatment, Bright Glo luminescence; read-out: NF-kB inhibition IC50
How it was run: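 HEK-293-NF-κB-Luc cells stably overexpressing MALT1 were seeded overnight, then exposed to test compounds for 24 h. Bright Glo added 10 min at ambient temperature and luminescence read; % inhibition calculated against 0.1% DMSO controls.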

IC50 (full length MALT1 enzyme) [nM] | Structure (SMILES) | IC50 [1] [nM]
1 to 50 | COC(C)c1c(NC(=O)Nc2cnc(-n3cccn3)c(C(F)(F)F)c2)cnc2sc(C)nc12 (single isomer, unassigned) [Compound 213b, (S) or (R)-1-(6-(1H-Pyrazol-1-yl)-5-(trifluoromethyl)pyridin-3-yl)-3-(7-(1-methoxyethyl)-2-methylthiazolo[5,4-b]pyridin-6-yl)urea] | 1 to 100
1 to 50 | CCc1nc2c(C(C)OC)c(NC(=O)Nc3ccc(-n4nccn4)c(Cl)c3)cnc2s1 (single isomer, unassigned) [Compound 233b, 1-(3-Chloro-4-(2H-1,2,3-triazol-2-yl)phenyl)-3-(2-ethyl-7-(1-methoxyethyl)thiazolo[5,4-b]pyridin-6-yl)urea] | 101 to 500
1 to 50 | COC(C)c1c(NC(=O)Nc2cnc(-n3cnnn3)c(C(F)(F)F)c2)cnc2sc(C)nc12 (single isomer, unassigned) [Compound 239, (S or R)-1-(6-(1H-Tetrazol-1-yl)-5-(trifluoromethyl)pyridin-3-yl)-3-(7-(1-methoxyethyl)-2-methylthiazolo[5,4-b]pyridin-6-yl)urea] | 1 to 100
1 to 50 | COC(CC1CC1)c1c(NC(=O)Nc2cnc(-n3nccn3)c(C(F)(F)F)c2)cnc2sc(C)nc12 (single isomer, unassigned) [Compound 240b, 1-(6-(2H-1,2,3-Triazol-2-yl)-5-(trifluoromethyl)pyridin-3-yl)-3-(7-(2-cyclopropyl-1-methoxyethyl)-2-methylthiazolo[5,4-b]pyridin-6-yl)urea] | 1 to 100
1 to 50 | CCOc1ncc(NC(=O)Nc2cnc3sc(C)nc3c2C2CC2)cc1Cl [Compound 4, 1-(5-Chloro-6-ethoxypyridin-3-yl)-3-(7-cyclopropyl-2-methylthiazolo[5,4-b]pyridin-6-yl)urea] | 501 to 1500
101 to 500 | Cc1nc2c(C3CC3)c(NC(=O)Nc3cc(C(F)(F)F)cn(C)c3=O)cnc2s1 [Compound 5, 1-(7-Cyclopropyl-2-methylthiazolo[5,4-b]pyridin-6-yl)-3-(1-methyl-2-oxo-5-(trifluoromethyl)-1,2-dihydropyridin-3-yl)urea] | 101 to 500
101 to 500 | Cc1nc2c(C3CC3)c(NC(=O)Nc3cncc(C(F)(F)F)c3)cnc2s1 [Compound 7, 1-(7-Cyclopropyl-2-methylthiazolo[5,4-b]pyridin-6-yl)-3-(5-(trifluoromethyl)pyridin-3-yl)urea] | 101 to 500
1 to 50 | COc1cc(F)ccc1-c1c(NC(=O)Nc2cnc(OC)c(Cl)c2)cnc2sc(C)nc12 [Compound 15, 1-(5-Chloro-6-methoxypyridin-3-yl)-3-(7-(4-fluoro-2-methoxyphenyl)-2-methylthiazolo[5,4-b]pyridin-6-yl)urea] | 501 to 1500
51 to 100 | Cc1nc2c(C3CC3)c(NC(=O)Nc3cnc(N4CCCS4(=O)=O)c(C(F)(F)F)c3)cnc2s1 [Compound 23, 1-(7-Cyclopropyl-2-methylthiazolo[5,4-b]pyridin-6-yl)-3-(6-(1,1-dioxidoisothiazolidin-2-yl)-5-(trifluoromethyl)pyridin-3-yl)urea] | 101 to 500
1 to 50 | CCc1c(NC(=O)Nc2ccc(OC)c(Cl)c2)cnc2sc(C)nc12 [Compound 25, 1-(3-Chloro-4-methoxyphenyl)-3-(7-ethyl-2-methylthiazolo[5,4-b]pyridin-6-yl)urea] | 501 to 1500
51 to 100 | COC1CCN(c2c(NC(=O)Nc3cnc(-n4nccn4)c(Cl)c3)cnc3sc(C)nc23)CC1 [Compound 29, 1-(5-Chloro-6-(2H-1,2,3-triazol-2-yl)pyridin-3-yl)-3-(7-(4-methoxypiperidin-1-yl)-2-methylthiazolo[5,4-b]pyridin-6-yl)urea] | 101 to 500
1 to 50 | CCc1nc2c(C3CC3)c(NC(=O)Nc3cnc(-n4nccn4)c(Cl)c3)cnc2s1 [Compound 31, 1-(5-Chloro-6-(2H-1,2,3-triazol-2-yl)pyridin-3-yl)-3-(7-cyclopropyl-2-ethylthiazolo[5,4-b]pyridin-6-yl)urea] | 101 to 500
51 to 100 | Cc1nc2c(N3CCC(C)CC3)c(NC(=O)Nc3cnc(-n4nccn4)c(Cl)c3)cnc2s1 [Compound 37, 1-(5-Chloro-6-(2H-1,2,3-triazol-2-yl)pyridin-3-yl)-3-(2-methyl-7-(4-methylpiperidin-1-yl)thiazolo[5,4-b]pyridin-6-yl)urea] | 101 to 500
1 to 50 | Cc1nc2c(N3CCCCC3)c(NC(=O)Nc3cnc(-n4nccn4)c(Cl)c3)cnc2s1 [Compound 40, 1-(5-Chloro-6-(2H-1,2,3-triazol-2-yl)pyridin-3-yl)-3-(2-methyl-7-(piperidin-1-yl)thiazolo[5,4-b]pyridin-6-yl)urea] | 1 to 100
51 to 100 | Cc1nc2c(C3CC3)c(NC(=O)Nc3cnc(OCCC4CCN(C)CC4)c(Cl)c3)cnc2s1 [Compound 73, 1-(5-Chloro-6-(2-(1-methylpiperidin-4-yl)ethoxy)pyridin-3-yl)-3-(7-cyclopropyl-2-methylthiazolo[5,4-b]pyridin-6-yl)urea] | 101 to 500
1 to 50 | COC(C)(C)c1c(NC(=O)Nc2ccc(-n3nccn3)c(Cl)c2)cnc2sc(C)nc12 [Compound 98, 1-(3-Chloro-4-(2H-1,2,3-triazol-2-yl)phenyl)-3-(7-(2-methoxypropan-2-yl)-2-methylthiazolo[5,4-b]pyridin-6-yl)urea] | 1 to 100
1 to 50 | COCC1(c2c(NC(=O)Nc3cnc(-n4nccn4)c(C(F)(F)F)c3)cnc3sc(C)nc23)CC1 [Compound 102, 1-(6-(2H-1,2,3-Triazol-2-yl)-5-(trifluoromethyl)pyridin-3-yl)-3-(7-(1-(methoxymethyl)cyclopropyl)-2-methylthiazolo[5,4-b]pyridin-6-yl)urea] | 1 to 100
51 to 100 | COc1ncc(NC(=O)Nc2cnc3sc(C)nc3c2N(C)C)cc1Cl [Compound 110, 1-(5-Chloro-6-methoxypyridin-3-yl)-3-(7-(dimethylamino)-2-methylthiazolo[5,4-b]pyridin-6-yl)urea] | 501 to 1500
1 to 50 | Cc1nc2c(C3CC3)c(NC(=O)Nc3ccc(-n4ccnn4)c(Cl)c3)cnc2s1 [Compound 169, 1-(3-Chloro-4-(1H-1,2,3-triazol-1-yl)phenyl)-3-(7-cyclopropyl-2-methylthiazolo[5,4-b]pyridin-6-yl)urea] | 101 to 500
1 to 50 | Cc1nc2c(C3CC3)c(NC(=O)Nc3cc(Cl)c(-n4ccnn4)c(Cl)c3)cnc2s1 [Compound 170, 1-(7-Cyclopropyl-2-methylthiazolo[5,4-b]pyridin-6-yl)-3-(3,5-dichloro-4-(1H-1,2,3-triazol-1-yl)phenyl)urea] | 101 to 500
